Values after ≈ are worked out from the molar mass of the structure shown.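 48-hour exposure; five concentrations; linearly interpolated endpoints. The concentration for 50% growth inhibition is given as GI50. Definition used: TGI = concentration required for complete inhibition of growth.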
Tests used:
Test in all cases: inhibition of tumour cell growth, NCI panel, 48 h
OVCAR-4 ovarian = test system: OVCAR-4 ovarian
OVCAR-3 ovarian = test system: OVCAR-3 ovarian
MOLT-4 leukemia = test system: MOLT-4 leukemia
SW-620 colon = test system: SW-620 colon
HCT-116 colon = test system: HCT-116 colon
A498 renal = test system: A498 renal
SK-MEL-2 melanoma = test system: SK-MEL-2 melanoma
HT29 colon = test system: HT29 colon
MCF7 breast = test system: MCF7 breast
SF-539 CNS = test system: SF-539 CNS
LOX IMVI melanoma = test system: LOX IMVI melanoma

Row | Structure (SMILES) | TGI (OVCAR-4 ovarian) | TGI (OVCAR-3 ovarian) | TGI (MOLT-4 leukemia) | TGI (SW-620 colon) | TGI (HCT-116 colon) | TGI (A498 renal) [µM] | TGI (SK-MEL-2 melanoma) [µM] | TGI (HT29 colon) | TGI (MCF7 breast) | TGI (SF-539 CNS) | TGI (LOX IMVI melanoma) | GI50 (MCF7 breast) [µg/mL] | GI50 (OVCAR-4 ovarian) [µg/mL] | GI50 (OVCAR-3 ovarian) [µg/mL] | GI50 (MOLT-4 leukemia) [µg/mL] | GI50 (SF-539 CNS) [µg/mL] | GI50 (SW-620 colon) [µg/mL] | GI50 (HCT-116 colon) [µg/mL] | GI50 (LOX IMVI melanoma) [µg/mL] | GI50 (HT29 colon) [µg/mL]
1 | COC(=O)C(Cc1cn(C(C)n2cc(CC(NC(C)=O)C(=O)OC)c3ccccc32)c2ccccc12)NC(C)=O (stereo not drawn) | > 100 µM | > 100 µM | > 100 µM | > 100 µM | > 100 µM | > 100 | > 100 | > 100 µM |  |  |  |  |  |  |  |  |  |  |  | 
2 | O=c1oc2ccccc2c(O)c1Cc1ccc(Cc2c(O)c3ccccc3oc2=O)cc1 | > 100 µM | > 100 µM | > 100 µM | > 100 µM | > 100 µM | > 100 | > 100 | > 100 µM | > 100 µM | > 100 µM | > 100 µM |  |  |  |  |  |  |  |  | 
3 | O=C(O)c1nc2ccc(C(F)(F)F)cc2[nH]c1=O | > 100 µM | > 100 µM | > 100 µM | > 100 µM | > 100 µM | > 100 | > 100 | > 100 µM | > 100 µM | > 100 µM | > 100 µM |  |  |  |  |  |  |  |  | 
4 | COC(=O)CC(=O)OSc1ccccc1 | > 100 µM | 36.4 µM | > 100 µM | 38.4 µM | 26.9 µM | 65 | 97.5 |  |  | 25.5 µM | 26.9 µM |  |  |  |  |  |  |  |  | 
5 | CCOC(=O)c1csc(NC(=O)C(C)N2CCCC2)n1 (stereo not drawn) | > 100 µM | > 100 µM |  | > 100 µM |  | > 100 | > 100 | > 100 µM | > 100 µM | > 100 µM | > 100 µM |  |  |  |  |  |  |  |  | 
6 | CSCC[C@@H](NC(=O)[C@H](CC(C)C)NC(=O)C(Cc1cnc[nH]1)NC(=O)CNC(=O)[C@@H](NC(=O)[C@H](C)NC(=O)[C@H](Cc1c[nH]c2ccccc12)NC(=O)[C@H](CCC(N)=O)NC(=O)[C@@H](N)CC(N)=O)C(C)C)C(N)=O (stereo partly drawn) | > 100 µM | > 100 µM | > 100 µM | > 100 µM | > 100 µM | > 100 | > 100 | > 100 µM | > 100 µM | > 100 µM | > 100 µM |  |  |  |  |  |  |  |  | 
7 | CN(C)CCNC(=O)c1cccc2c1Nc1ccccc1S2 | 26.4 µM | 28 µM | 29.5 µM | 30.8 µM | 25 µM | 24.5 | 30.3 | 25 µM | 27 µM | 28.8 µM | 26.2 µM |  |  |  |  |  |  |  |  | 
8 | O=C1NN(C2=NNC3(C(=O)N2)c2ccccc2-c2ccccc23)C(c2ccccc2)=N/C1=C/c1ccc(Cl)cc1 | > 150 µg/mL | 69.3 µg/mL | > 150 µg/mL | > 150 µg/mL | > 150 µg/mL |  |  | > 150 µg/mL | 144 µg/mL | > 150 µg/mL | > 150 µg/mL | 35.8 (≈ 65.7 µM) | 62.8 (≈ 115 µM) | 29.5 (≈ 54.2 µM) | 42.7 (≈ 78.4 µM) | 50.9 (≈ 93.4 µM) | 52.8 (≈ 96.9 µM) | 51.2 (≈ 94 µM) | 56.1 (≈ 103 µM) | 89.6 (≈ 164 µM)

— PubChem BioAssay (NCI)
